Several values for one entry are separate records, joined by “and”; a condition that tells them apart may be missing. Equal entries are not always repeated.
What was measured:
[1] = tested on: human acute myelogenous leukemia KG-1a cells; test: KG-1a subcutaneous xenograft in NOD/SCID mice; assay type: in vivo; details: for growth of KG-1a in mice in vivo (in words): KG-1a xenograft, intragastric 2 times a day, dose-dependent effect; for Tumor volume: KG-1a
Procedure: (§1) 7-week old female NOD/SCID mice were taken and inoculated subcutaneously with 1×10^7 cells (0.2 ml) per mouse in axilla, with human acute myelogenous leukemia KG-1a cells on the left and human acute monocytic leukemia THP-1 cells on the right. When tumors grew to a tumor size of around 0.5 cm, the mice were randomized into groups with 3 mice each. An equivalent amount of PBS was used for the control group, and the 14-D-Valine-TPL group was divided into two groups with 0.2 mg/kg body weight and 0.4 mg/kg body weight: intragastric administration 2 times a day (one at 8 a.m. and one at 4 p.m.) for consecutive 14 days of treatment. An observation was made for total 30 days, during which the conditions of the mice such as tumor size, weight, activity, diet, and the like were measured. At the end of the experiment, the mice were sacrificed, tumor tissues were taken and the tumors were weighed, and major organs and tissues of the mice such as liver, spleen, heart, lung, large intestine, small intestine, and the like were examined.
as §1, with “the left.” for “the left and human acute monocytic leukemia THP-1 cells on the right.”, “around 50-100 mm^3,” for “around 0.5 cm,”, “the TPL-LLV” for “the 14-D-Valine-TPL”, “with 0.23” for “with 0.2”, “and 0.46” for “and 0.4”, “intragastric administration,” for “intragastric administration”
as §1, with “the left.” for “the left and human acute monocytic leukemia THP-1 cells on the right.”, “around 50-100 mm^3,” for “around 0.5 cm,”, “the TPL-DLV” for “the 14-D-Valine-TPL”, “with 0.23” for “with 0.2”, “and 0.46” for “and 0.4”, “intragastric administration,” for “intragastric administration”
as §1, with “the left.” for “the left and human acute monocytic leukemia THP-1 cells on the right.”, “around 50-100 mm^3,” for “around 0.5 cm,”, “the TPL-DLV” for “the 14-D-Valine-TPL”, “with 0.32” for “with 0.2”, “and 0.64” for “and 0.4”, “intragastric administration,” for “intragastric administration”

[2] = Body weight and organ examination of tumour-bearing mice; assay type: in vivo, NOD/SCID mice; details: 14 days, individual mice
Procedure: as §1
as §1, with “the left.” for “the left and human acute monocytic leukemia THP-1 cells on the right.”, “around 50-100 mm^3,” for “around 0.5 cm,”, “the TPL-LLV” for “the 14-D-Valine-TPL”, “with 0.23” for “with 0.2”, “and 0.46” for “and 0.4”, “intragastric administration,” for “intragastric administration”
as §1, with “the left.” for “the left and human acute monocytic leukemia THP-1 cells on the right.”, “around 50-100 mm^3,” for “around 0.5 cm,”, “the TPL-DLV” for “the 14-D-Valine-TPL”, “with 0.23” for “with 0.2”, “and 0.46” for “and 0.4”, “intragastric administration,” for “intragastric administration”
7-week old female NOD/SCID mice were taken and inoculated subcutaneously with 1×10^7 cells (0.2 ml) per mouse in axilla, with human acute myelogenous leukemia KG-1a cells on the left. When tumors grew to a tumor size of around 50-100 mm^3, the mice were randomized into groups with 3 mice each. An equivalent amount of PBS was used for the control group, and the TPL-DLV group was divided into two groups with 0.32 mg/kg body weight and 0.64 mg/kg body weight: intragastric administration, 2 times a day (one at 8 a.m. and one at 4 p.m.) for consecutive 14 days of treatment. An observation was made for total 30 days, during which the conditions of the mice such as tumor size, weight, activity, diet, and the like were measured. At the end of the experiment, the mice were sacrificed, tumor tissues were taken and the tumors were weighed, and major organs and tissues of the mice such as liver, spleen, heart, lung, large intestine, small intestine, and the like were examined. […]

[3] = tested on: KG-1; test: MTT growth inhibition, KG-1 cells, 72 h; assay type: cell-based; details: Homo sapiens, KG-1, MTT
Procedure: (§2) 5000 well-grown leukemia cells were taken and seeded into wells of a 96-well cell culture plate. The medium was 1640 cell medium containing 10% fetal bovine serum. 14-D-Valine-TPL with different concentrations was added, and after being uniformly mixed, the plate was placed in a carbon dioxide (5% CO2) cell incubator, and incubated at 37° C. for 72 hours. The concentration of live cells was then determined using the MTT assay. In this experiment, the cell viability in the control group (without the compound treatment) was set to be 100%, and the cell viability (%) after the action of the compound and the half maximal growth inhibitory concentration of leukemia cells at 72 hours (IC50 value at 72 hours) were calculated.

[4] = tested on: THP-1; test: MTT growth inhibition, THP-1 cells, 72 h; assay type: cell-based; details: Homo sapiens, THP-1, MTT
Procedure: as §2

[5] = tested on: human chronic myelogenous leukemia K562/ADR cells; test: K562/ADR subcutaneous xenograft in NOD/SCID mice; assay type: in vivo; details: for growth of K562/ADR cells in mice in vivo (in words): K562/ADR xenograft, intragastric 2 times a day, dose-dependent effect; for Tumor volume: K562/ADR
Procedure: (§3) 7-week old female NOD/SCID mice were taken and inoculated subcutaneously with 1×10^7 cells (0.2 ml) per mouse in axilla, with human K562/ADR cells on the left. When tumors grew to a tumor size of around 50-100 mm^3, the mice were randomized into groups with 3 mice each. An equivalent amount of PBS was used for the control group, and the TPL-DDV group was divided into two groups with 0.23 mg/kg body weight and 0.46 mg/kg body weight: intragastric administration, 2 times a day (one at 8 a.m. and one at 4 p.m.) for consecutive 14 days of treatment. An observation was made for total 30 days, during which the conditions of the mice such as tumor size, weight, activity, diet, and the like were measured. At the end of the experiment, the mice were sacrificed, tumor tissues were taken and the tumors were weighed, and major organs and tissues of the mice such as liver, spleen, heart, lung, large intestine, small intestine, and the like were examined.
as §3, with “TPL-LV” for “TPL-DDV”, “0.2” for “0.23”, “0.4” for “0.46”

[6] = tested on: pancreatic cancer; details: cited from earlier work
[7] = tested on: KG-1a; test: MTT growth inhibition, KG-1a cells, 72 h; assay type: cell-based; details: Homo sapiens
Procedure: as §2

Question: For CC(C)[C@]12O[C@H]1[C@@H]1O[C@]13[C@]1(O[C@H]1C[C@H]1C4=C(CC[C@@]13C)C(=O)OC4)[C@@H]2OC(=O)[C@H](Cc1ccc(O)cc1)NC(=O)[C@@H](N)Cc1ccccc1 [14-L-Phenylalanyl-L-tyrosine-TPL, 14-Levo-Phenylalanyl-Levo-tyrosine-Triptolide], which “growth of KG-1a in mice in vivo (in words)” value ([1]; 14 days) is on record?
Answer: significantly inhibit the growth

Question: What about the Tumor volume ([1]; 0.64 mg/kg, Overall) of the same molecule?
Answer: 0 mm^3

Question: And the Tumor volume ([1]; trifluoroacetate 0.32 mg/kg intragastric 2 times a day, 14 days, individual mice, listed as LPT)?
Answer: 168.07 mm^3 and 93.12 mm^3 and 131.17 mm^3

Question: And the Tumor volume ([1]; trifluoroacetate 0.64 mg/kg intragastric 2 times a day, 14 days, individual mice)?
Answer: 0 mm^3

Question: And the Body weight ([2]; KG-1a-bearing mice, 0.32 mg/kg intragastric 2 times a day, listed as LPT, 0.32 mg/kg)?
Answer: 20 g and 20.4 g and 21.4 g

Question: What about the Body weight ([2]; KG-1a-bearing mice, 0.64 mg/kg intragastric 2 times a day, listed as LPT, 0.64 mg/kg) of the same molecule?
Answer: 19.4 g and 16.1 g and 17.4 g

Question: What does the source list for CC(C)[C@H](N)C(=O)O[C@@H]1[C@@]2(C(C)C)O[C@H]2[C@@H]2O[C@]23[C@]12O[C@H]2C[C@H]1C2=C(CC[C@@]13C)C(=O)OC2 [14-L-Valine-TPL, 14-Levo-Valine-Triptolide]?
Answer: IC50 [3]: 8.86 nM; IC50 [4]: 5 nM; growth of K562/ADR cells in mice in vivo (in words) ([5]; 14 days): significantly inhibit the growth; Tumor volume ([5]; trifluoroacetate 0.2 mg/kg intragastric 2 times a day, 14 days, individual mice, listed as LV): 73.63 mm^3 and 0 mm^3 and 159.87 mm^3; Tumor volume ([5]; trifluoroacetate 0.4 mg/kg intragastric 2 times a day, 14 days, individual mice, listed as LV): 30.71 mm^3 and 96.79 mm^3 and 0 mm^3; Body weight ([2]; K562/ADR-bearing mice, 0.2 mg/kg intragastric 2 times a day, listed as LV, 0.2 mg/kg): 18 g and 22.2 g and 22 g; Body weight ([2]; K562/ADR-bearing mice, 0.4 mg/kg intragastric 2 times a day, listed as LV, 0.4 mg/kg): 21.2 g and 20.8 g and 21.1 g

Question: For CC(C)[C@H](N)C(=O)N[C@@H](C(=O)O[C@@H]1[C@@]2(C(C)C)O[C@H]2[C@@H]2O[C@]23[C@]12O[C@H]2C[C@H]1C2=C(CC[C@@]13C)C(=O)OC2)C(C)C [14-L-Valine-D-Valine-TPL, 14-Levo-Valine-Dextro-Valine-Triptolide], which “growth of KG-1a in mice in vivo (in words)” value ([1]; 14 days) is on record?
Answer: significantly inhibit the growth

Question: And the Tumor volume ([1]; trifluoroacetate 0.23 mg/kg intragastric 2 times a day, 14 days, individual mice, listed as DLV)?
Answer: 562.66 mm^3 and 505.81 mm^3 and 1038.41 mm^3

Question: And the Tumor volume ([1]; trifluoroacetate 0.46 mg/kg intragastric 2 times a day, 14 days, individual mice, listed as DLV)?
Answer: 90.96 mm^3 and 265.32 mm^3 and 50.35 mm^3

Question: And the Body weight ([2]; KG-1a-bearing mice, 0.23 mg/kg intragastric 2 times a day, listed as DLV, 0.23 mg/kg)?
Answer: 19.5 g and 17.8 g and 19.6 g

Question: And the Body weight ([2]; KG-1a-bearing mice, 0.46 mg/kg intragastric 2 times a day, listed as DLV, 0.46 mg/kg)?
Answer: 19.6 g and 18.5 g and 18.8 g

Question: For CC(C)[C@]12O[C@H]1[C@@H]1O[C@]13[C@]1(O[C@H]1C[C@H]1C4=C(CC[C@@]13C)C(=O)OC4)[C@@H]2OCOP(=O)(O)O [Minnelide], which toxic effect ([6]; at a dosage effective to tumor regression) is on record?
Answer: no significant toxic effect

Question: What about the survival of mice ([6]; nude mouse model of pancreatic cancer) of the same molecule?
Answer: prolonged the survival of mice

Question: What does the source list for CC(C)[C@@H](N)C(=O)N[C@@H](C(=O)O[C@@H]1[C@@]2(C(C)C)O[C@H]2[C@@H]2O[C@]23[C@]12O[C@H]2C[C@H]1C2=C(CC[C@@]13C)C(=O)OC2)C(C)C [14-D-Valine-D-Valine-TPL, 14-Dextro-Valine-Dextro-Valine-Triptolide]?
Answer: growth of K562/ADR cells in mice in vivo (in words) ([5]; 14 days): significantly inhibit the growth; Tumor volume ([5]; 0.23 mg/kg, Overall): 0 mm^3; Tumor volume ([5]; 0.46 mg/kg, Overall): 0 mm^3; Tumor volume ([5]; trifluoroacetate 0.23 mg/kg intragastric 2 times a day, 14 days, individual mice): 0 mm^3; Tumor volume ([5]; trifluoroacetate 0.46 mg/kg intragastric 2 times a day, 14 days, individual mice): 0 mm^3; Body weight ([2]; K562/ADR-bearing mice, 0.23 mg/kg intragastric 2 times a day, listed as DDV, 0.23 mg/kg): 19.7 g and 21.2 g and 19.1 g; Body weight ([2]; K562/ADR-bearing mice, 0.46 mg/kg intragastric 2 times a day, listed as DDV, 0.46 mg/kg): 20.5 g and 23.2 g and 19.3 g

Question: Which results are given for CC(C)[C@H](N)C(=O)N[C@H](C(=O)O[C@@H]1[C@@]2(C(C)C)O[C@H]2[C@@H]2O[C@]23[C@]12O[C@H]2C[C@H]1C2=C(CC[C@@]13C)C(=O)OC2)C(C)C [14-L-Valine-L-Valine-TPL, 14-Levo-Valine-Levo-Valine-Triptolide]?
Answer: IC50 [7]: 20 nM; growth of KG-1a in mice in vivo (in words) ([1]; 14 days): significantly inhibit the growth; Tumor volume ([1]; trifluoroacetate 0.23 mg/kg intragastric 2 times a day, 14 days, individual mice, listed as LLV): 804.56 mm^3 and 644.07 mm^3 and 1105.64 mm^3; Tumor volume ([1]; trifluoroacetate 0.46 mg/kg intragastric 2 times a day, 14 days, individual mice, listed as LLV): 383.11 mm^3 and 356.82 mm^3 and 317.61 mm^3; Body weight ([2]; KG-1a-bearing mice, 0.23 mg/kg intragastric 2 times a day, listed as LLV, 0.23 mg/kg): 19.4 g and 19.7 g and 20.5 g; Body weight ([2]; KG-1a-bearing mice, 0.46 mg/kg intragastric 2 times a day, listed as LLV, 0.46 mg/kg): 20.0 g and 18.9 g and 18.6 g

From patent US10238623B2, “C14-hydroxyl esterified amino acid derivative of triptolide, and preparation method and use thereof” (HANGZHOU WEBEN PHARMACEUTICALS INC, priority 2015, dated 2019)
